{"source": "patent US6667025B2", "about": "(Mitsubishi Pharma Corporation, priority 1997, dated 2003)", "key": {"[1]": {"tested_on": "IL-2 mRNA in alloantigen-stimulated splenic T cells", "assay": "IL-2 mRNA expression in allogeneic mixed lymphocyte culture (PCR)", "type": "cell-based, rat", "conditions": "48 hours", "experimental": "The housekeeping gene HPRT was used as an internal control in order to compare levels of IL-2 mRNA levels relative to the HPRT mRNA levels, as detailed below.\nAllogeneic mixed lymphocyte culture was carried out by using nylon-nonadherent spleen cells of F344 rat (RT1^1v1) as responder cells and the spleen cells of WKAH rat (RT1^k) pretreated with 40 μg/ml of mitomycin C for 30 min as stimulator cells. […] After culturing for 48 hours, the cells were recovered by centrifugation. The expression of IL-2 mRNA in the cells was determined by a polymerase chain reaction (PCR) method.\nTotal RNA was reverse transcribed in […] of buffer solution containing 10 mmol/L Tris-HCl (pH 8.3),50 mM KCl, 5 mM MgCl2, 1 mM each dNTP (dATP, dGTP, dTTP and dCTP), 60 U RNase inhibitor (Takara Ltd. Tokyo, Japan), 15 U avian myelobalastosis virus reverse transcriptase (Takara Ltd.) and 150 pmol random 9-mers at 30° C. for 10 min and 42° C. for 30 min. Primer sequences for IL-2 and hypoxanthine-guanine phosphoribosyltransferase (HPRT) were taken from the previous report (44).\nThe length in base pairs of the PCR products of IL-2 and HPRT are 351 and 608 bp respectively. […] Fluorescence intensity of the specific bands was visualized by fluorescence image analyzer (FLUOR IMAGER 575®, Molecular Dynamics)."}, "circulating lymphocytes [2]": {"tested_on": "circulating lymphocytes", "assay": "Circulating lymphocytes in peripheral blood of monkeys", "type": "in vivo, monkey", "conditions": "oral", "excerpt": "(§1) In dogs and monkeys, as well as rats, oral administration with FTY720 also decreases the number of circulating lymphocytes in peripheral blood. The reduction of the number of T cells was especially remarkable. Withdrawal of FTY720 treatment recovered the number of lymphocytes in peripheral blood to the normal level within 2 weeks."}, "[3]": {"tested_on": "CD3-positive T cells and CD45RA or A/B-positive B cells", "assay": "Lymphocyte contents of blood and lymphoid tissues by two color flow cytometry", "type": "in vivo, rat", "experimental": "The lymphocyte contents of peripheral blood and spleen in FTY720-treated intact or allografted rats were analyzed by two color flow cytometry using anti-rat CD3 and anti-rat CD45RA or A/B monoclonal antibodies (21). Lymphocytes were stained with FITC-conjugated anti-CD3 (clone: 1F4, Caltag Laboratories, South San Fransisco, Calif.) (45) and phycoerythrin-conjugated anti-CD45RA or A/B (clone:OX-33, Pharmingen, La Jolla, Calif.) (46) monoclonal antibodies. The T cell and B cell contents were determined by two-color flow cytometry analysis using a flow cytometer (EPICS-XL; Coulter Co.).\nas §1"}, "lymphocytes": {"tested_on": "lymphocytes", "assay": "Numbers of lymphocytes in blood, spleen, mesenteric lymph nodes and Peyer's patches in vivo", "design": "species or system rat", "conditions": "24 hours", "experimental": "FTY720 at 0.1 and 1 mg/kg were administered orally to 6 week-old male F344 rats. At 3, 12, 24 hours after administration, peripheral blood, spleen, mesenteric lymph nodes, and Peyer's patches were removed and the lymphocyte numbers of these tissues were measured by using a flow cytometer, as known in the art (EPICS XL)."}, "[4]": {"tested_on": "skin allograft, LEW donor and F344 recipient", "assay": "Rat skin allograft survival, MHC-compatible strains", "type": "in vivo", "conditions": "data not shown"}, "IL-2 production": {"tested_on": "IL-2 production", "conditions": "same concentration range (up to 1000 nM); cited from earlier work"}, "circulating lymphocytes [5]": {"tested_on": "circulating lymphocytes", "assay": "Circulating lymphocytes in peripheral blood of dogs", "type": "in vivo, dog", "conditions": "oral", "excerpt": "as §1"}, "rat HEV cell lines": {"tested_on": "rat HEV cell lines", "assay": "Adhesion of rat lymphocytes to HEV cells in vitro", "type": "cell-based", "experimental": "After the labeling with calcein-AM, the lymphocytes were washed three times with ice-cold RPMI 1640 medium. […] After incubation, the plates were turned upside down and kept for 30 min to remove HEV-nonadherent cells. Calcein pre-labeled lymphocytes adhered to HEV monolayer were lysed by adding distilled water containing 1% nonidet P-40 and the developed fluorescence was measured at 485/530 nm with fluorescence microplate reader (CytoFluor 2350)."}, "[6]": {"tested_on": "popliteal lymph node of (LEW×BN) F1 rats injected with LEW spleen cells", "assay": "Local GvHR, enlargement of popliteal lymph node", "type": "in vivo, rat"}}}
{"smiles": "CCCCCCCCc1ccc(CCC(N)(CO)CO)cc1.Cl", "note": "[FTY720, 2-amino-2[2-(4-octylphenyl)ethyl]propane-1,3-diol hydrochloride]", "values": [{"measurement": "concentration that inhibited IL-2 mRNA expression", "setting": "[1]", "value": "> 1000", "unit": "nM"}, {"measurement": "number of circulating lymphocytes in peripheral blood", "setting": "circulating lymphocytes [2]", "value": "decreases"}, {"measurement": "number of bone marrow cells, thymocytes, polymorphonuclear cells", "setting": "[3]; data not shown", "value": "did not effect"}, {"measurement": "number of T cells and B cells in spleen, thoracic duct, peripheral blood", "setting": "[3]; oral 1 mg/kg", "value": "decrease"}, {"measurement": "numbers of T cells and B cells in mesenteric and peripheral lymph nodes", "setting": "[3]; oral 1 mg/kg", "value": "significantly increased"}, {"measurement": "time to recovery of peripheral blood lymphocytes to normal level after withdrawal", "setting": "[3]; withdrawal of FTY720 treatment", "value": "≤ 2", "unit": "weeks"}, {"measurement": "numbers of T cells and B cells in peripheral blood", "setting": "[3]; within 6 hours after oral 0.1 to 10 mg/kg", "value": "dramatically decreased"}, {"measurement": "Number of lymphocytes, Peyer's patches", "setting": "lymphocytes; 0.1 mg/kg p.o.", "value": "551.5 ± 103.5 × 10^4 cells/tissue"}, {"measurement": "Number of lymphocytes, mesenteric lymph nodes", "setting": "lymphocytes; 0.1 mg/kg p.o.", "value": "421.8 ± 27.4 × 10^5 cells/tissue"}, {"measurement": "Number of lymphocytes, peripheral blood", "setting": "lymphocytes; 0.1 mg/kg p.o.", "value": "1071.9 ± 59.3", "unit": "cells/μL"}, {"measurement": "Number of lymphocytes, spleen", "setting": "lymphocytes; 0.1 mg/kg p.o.", "value": "652.3 ± 31.2 × 10^5 cells/tissue"}, {"measurement": "Number of lymphocytes, Peyer's patches", "setting": "lymphocytes; 1 mg/kg p.o.", "value": "628.8 ± 61.1 × 10^4 cells/tissue"}, {"measurement": "Number of lymphocytes, mesenteric lymph nodes", "setting": "lymphocytes; 1 mg/kg p.o.", "value": "434.3 ± 33.2 × 10^5 cells/tissue"}, {"measurement": "Number of lymphocytes, peripheral blood", "setting": "lymphocytes; 1 mg/kg p.o.", "value": "667.2 ± 199.8", "unit": "cells/μL"}, {"measurement": "Number of lymphocytes, spleen", "setting": "lymphocytes; 1 mg/kg p.o.", "value": "538.0 ± 74.1 × 10^5 cells/tissue"}, {"measurement": "dose that significantly prolonged skin allograft survival", "setting": "[4]", "value": "≥ 0.03", "unit": "mg/kg"}, {"measurement": "production of IL-2", "setting": "IL-2 production", "value": "did not inhibit"}, {"measurement": "number of circulating lymphocytes in peripheral blood", "setting": "circulating lymphocytes [5]", "value": "decreases"}, {"measurement": "Fluorescence intensity at 485/530, mean ± SE (n = 6)", "setting": "rat HEV cell lines; Experiment 1, HEV cells pretreated 3 hours with 1 nmol/L", "value": "1215.7 ± 191.2"}, {"measurement": "Fluorescence intensity at 485/530, mean ± SE (n = 6)", "setting": "rat HEV cell lines; Experiment 1, HEV cells pretreated 3 hours with 10 nmol/L", "value": "2926.0 ± 196.4"}, {"measurement": "Fluorescence intensity at 485/530, mean ± SE (n = 6)", "setting": "rat HEV cell lines; Experiment 1, HEV cells pretreated 3 hours with 100 nmol/L", "value": "2510.2 ± 118.8"}, {"measurement": "Fluorescence intensity at 485/530, mean ± SE (n = 6)", "setting": "rat HEV cell lines; Experiment 2, lymphocytes pretreated 3 hours with 100 nmol/L", "value": "1945.7 ± 5.2"}, {"measurement": "Fluorescence intensity at 485/530, mean ± SE (n = 6)", "setting": "rat HEV cell lines; FTY720 1 nmol/L present", "value": "2059.2 ± 112.6"}, {"measurement": "Fluorescence intensity at 485/530, mean ± SE (n = 6)", "setting": "rat HEV cell lines; FTY720 10 nmol/L present", "value": "2107.2 ± 106.5"}, {"measurement": "Fluorescence intensity at 485/530, mean ± SE (n = 6)", "setting": "rat HEV cell lines; FTY720 100 nmol/L present", "value": "2252.0 ± 70.8"}, {"measurement": "Fluorescence intensity at 485/530, mean ± SE (n = 6)", "setting": "rat HEV cell lines; FTY720 1000 nmol/L present", "value": "2383.2 ± 115.2"}, {"measurement": "concentration that enhanced adhesion of calcein-prelabeled lymphocytes to HEV", "setting": "rat HEV cell lines; in vitro, 120 min", "value": "≥ 1", "unit": "nmol/L"}, {"measurement": "immunosuppressive potency relative to CsA", "setting": "[6]; local GvHR in rats", "value": 30, "unit": "fold"}, {"measurement": "oral dose that significantly inhibited enlargement of popliteal lymph node", "setting": "[6]; oral, local GvHR", "value": "≥ 0.1", "unit": "mg/kg"}]}
